Test results from patent US20250353873A1, “COMPOUNDS AND METHODS FOR MODULATING APOE EXPRESSION” (Ionis Pharmaceuticals, Inc., priority 2024, published 2025).
pIC50: −log10 of the molar value. Strand notation (5' to 3'): a small letter for the sugar, then the base; units joined by * are phosphorothioate-linked, units joined directly phosphodiester-linked; [ ] holds rarer units or linkages, { } end groups; capitals alone tell only the bases. [ms] = mesyl phosphoramidate linkage; e = 2'-O-(2-methoxyethyl) (MOE); k = constrained ethyl (cEt); [5mC] = 5-methylcytosine; d = 2'-deoxy (DNA)

What was measured:
human APOE RNA [1] = assay: Activity in APOE C57BL/6NTac-Apoeem7250 knock-in mice, single ICV bolus, 4 weeks (Example 10); format: in vivo; details: single ICV bolus 300 μg, 4 weeks post treatment, normalized to mouse Ppia
In short: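 Human APOE RNA, quantified by real-time RT-PCR with RTS3073 and normalized to mouse Ppia, was read in cortical brain and spinal cord 4 weeks post dosing. Dosing was a single ICV bolus of 300 μg per knock-in mouse; values are % of PBS-treated animals.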

human APOE RNA [2] = assay: Activity in APOE C57BL/6NTac-Apoeem7250 knock-in mice, single ICV bolus, 20 weeks (Example 13); format: in vivo; details: single ICV bolus 300 μg, 20 weeks post treatment, normalized to mouse Ppia
In short: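 Cortical and spinal cord RNA was assayed by real-time RT-PCR for human APOE, normalized to mouse Ppia and reported as percent of PBS controls. Tissue was taken twenty weeks after one 300 μg intracerebroventricular bolus in APOE knock-in mice, 4 per group.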

human APOE RNA [3] = assay: Activity in APOE C57BL/6NTac-Apoeem7250 knock-in mice, single ICV bolus, 16 weeks (Example 12); format: in vivo; details: single ICV bolus 300 μg, 16 weeks post treatment, normalized to mouse Ppia
In short: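 A single 300 μg intracerebroventricular dose was given, with PBS-treated mice as reference; cortical and spinal cord tissue was taken 16 weeks later. RT-qPCR quantified human APOE RNA, Ppia-normalized, expressed relative to PBS animals (% control).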

human APOE RNA [4] = assay: Activity in APOE C57BL/6NTac-Apoeem7250 knock-in mice, single ICV bolus, 8 weeks (Example 11); format: in vivo; details: single ICV bolus 300 μg, 8 weeks post treatment, normalized to mouse Ppia
In short: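 Cortical and spinal cord human APOE RNA quantified by RT-qPCR 8 weeks after a single 300 μg ICV dose in knock-in mice, Ppia-normalized. Values are percent of levels in PBS-treated animals.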

human APOE RNA [5] = assay: Dose-dependent inhibition of human APOE RNA in HepG2 cells, electroporation, 50,000 cells per well, RT-PCR normalized to GAPDH (Example 4, Tables 8-10); format: cell-based; details: HepG2, electroporation, 16-hour treatment
In short: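 Readout is percent APOE RNA versus untreated controls, measured by RT-PCR (primer probe set RTS3073) and normalized to human GAPDH. Modified oligonucleotides were delivered by electroporation at varying doses into HepG2 cells plated at 50,000 per well.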

| Substance | APOE RNA (% control) Cortex (human APOE RNA [1]) [% control] | APOE RNA (% control) Spinal Cord (human APOE RNA [1]) [% control] | APOE RNA (% control) Cortex (human APOE RNA [2]) [% control] | APOE RNA (% control) Spinal Cord (human APOE RNA [2]) [% control] | other results |
| --- | --- | --- | --- | --- | --- |
| 1779699 (e[5mC]*eTeT*kG*kG*eT*dG[ms]dA[ms]dA[ms]dT*d[5mC]*dT*dT*dT*dA[ms]dT*eT*eA*eA*eA; antisense) [Compound 1779699] | 44 | 54 | 53 | 25 | – |
| 1778113 (eA*e[5mC]eTeTkG*kG*dT*dG[ms]dA[ms]dA*dT*d[5mC]*dT*dT*dT*dA[ms]eT*eT*eA*eA; antisense) [Compound 1778113] | 48 | 88 | 61 | 24 | APOE RNA (% control) Cortex (human APOE RNA [3]): 46 % control; APOE RNA (% control) Spinal Cord (human APOE RNA [3]): 27 % control; APOE RNA (% control) Cortex (human APOE RNA [4]): 53 % control; APOE RNA (% control) Spinal Cord (human APOE RNA [4]): 28 % control |
| 1778117 (eA*e[5mC]eTeTeG*eG*dT*dG[ms]dA[ms]dA*dT*d[5mC]*dT*dT*dT*dA[ms]kT*eT*eA*eA; antisense) [Compound 1778117] | 46 | 114 | 72 | 36 | APOE RNA (% control) Cortex (human APOE RNA [3]): 65 % control; APOE RNA (% control) Spinal Cord (human APOE RNA [3]): 36 % control; APOE RNA (% control) Cortex (human APOE RNA [4]): 49 % control; APOE RNA (% control) Spinal Cord (human APOE RNA [4]): 28 % control |
| 1779706 (e[5mC]*eTeTkGkG*dT[ms]dG[ms]dA[ms]dA*dT*d[5mC]*dT*dT*dT*dA*dT*eT*eA*eA*eA; antisense) [Compound 1779706] | 35 | 53 | 46 | 36 | – |
| 1757573 (eA*e[5mC]eTeT*eG*eG*dT*dG[ms]dA[ms]dA[ms]dT*d[5mC]*dT*dT*dT*dA[ms]kT*eT*eA*eA; antisense) [Compound 1757573] | 53 | 38 | 61 | 42 | – |
| 1766559 (eT*eTeGeGeT*dG[ms]dA[ms]dA[ms]dT*d[5mC]*dT*dT*dT[ms]dA[ms]dT*kTkAeA*eA*e[5mC]; antisense) [Compound 1766559] | 79 | 81 | 100 | 74 | APOE RNA (% UTC) (human APOE RNA [5]; 5 nM): 166 % UTC; APOE RNA (% UTC) (human APOE RNA [5]; 33 nM): 65 % UTC; APOE RNA (% UTC) (human APOE RNA [5]; 82 nM): 47 % UTC; APOE RNA (% UTC) (human APOE RNA [5]; 205 nM): 46 % UTC; APOE RNA (% UTC) (human APOE RNA [5]; 512 nM): 41 % UTC; APOE RNA (% UTC) (human APOE RNA [5]; 1,280 nM): 30 % UTC; APOE RNA (% UTC) (human APOE RNA [5]; 3,200 nM): 21 % UTC; APOE RNA (% UTC) (human APOE RNA [5]; 8,000 nM): 35 % UTC; APOE RNA (% UTC) (human APOE RNA [5]; 20,000 nM): 36 % UTC; pIC50 (human APOE RNA [5]): 6.47 |
| 1778109: 6-10-4 MOE gapmer ACTTGGTGAATCTTTATTAA, linkages sooossszzsssssszoss (eA*e[5mC]eTeTeG*eG*dT*dG[ms]dA[ms]dA*dT*d[5mC]*dT*dT*dT*dA[ms]eTeT*eA*eA) [compound 1778109] | 59 | 61 | 81 | 34 | – |
| 1778107: 6-10-4 MOE gapmer ACTTGGTGAATCTTTATTAA, linkages sooossszzsssssszsss (eA*e[5mC]eTeTeG*eG*dT*dG[ms]dA[ms]dA*dT*d[5mC]*dT*dT*dT*dA[ms]eT*eT*eA*eA) [compound 1778107] | 70 | 70 | 76 | 32 | – |
| 1785591 (k[5mC]*kT*kT*dG[ms]dG[ms]dT[ms]dG*dA*dA*dT*d[5mC]*dT[ms]dT[ms]dT*dA*dT*kT*kA*dA[ms]kA; antisense) [Compound 1785591] | 37 | 39 | 51 | 42 | – |
| 1778108 (eA*e[5mC]eTeTeG*kG*dT*dG[ms]dA[ms]dA*dT*d[5mC]*dT*dT*dT*dA[ms]eT*eT*eA*eA; antisense) [Compound 1778108] | 60 | 41 | 70 | 21 | – |
| 1779961 (e[5mC]*eTeT*kG[ms]kG*eT*dG[ms]dA[ms]dA[ms]dT*d[5mC]*dT*dT*dT*dA[ms]dT*eT*eA*eA*eA; antisense) [Compound 1779961] | 39 | 53 | 59 | 26 | – |
| 1785588 (k[5mC]*kT*kT*dG[ms]dG[ms]dT[ms]dG*dA*dA[ms]dT[ms]d[5mC]*dT*dT*dT*dA*dT*kT*kA*dA[ms]kA; antisense) [Compound 1785588] | 30 | 29 | 40 | 18 | – |
| 1778110: 6-10-4 MOE gapmer ACTTGGTGAATCTTTATTAA, linkages soooosszzsssssszoss (eA*e[5mC]eTeTeGeG*dT*dG[ms]dA[ms]dA*dT*d[5mC]*dT*dT*dT*dA[ms]eTeT*eA*eA) [compound 1778110] | 51 | 51 | 81 | 35 | – |
| 1757572 (eA*e[5mC]eTeT*kG*kG*dT*dG[ms]dA[ms]dA[ms]dT*d[5mC]*dT*dT*dT*dA[ms]eT*eT*eA*eA; antisense) [Compound 1757572] | 50 | 38 | 51 | 69 | APOE RNA (% UTC) (human APOE RNA [5]; 5 nM): 114 % UTC; APOE RNA (% UTC) (human APOE RNA [5]; 13 nM): 95 % UTC; APOE RNA (% UTC) (human APOE RNA [5]; 33 nM): 107 % UTC; APOE RNA (% UTC) (human APOE RNA [5]; 82 nM): 96 % UTC; APOE RNA (% UTC) (human APOE RNA [5]; 205 nM): 83 % UTC; APOE RNA (% UTC) (human APOE RNA [5]; 512 nM): 67 % UTC; APOE RNA (% UTC) (human APOE RNA [5]; 1,280 nM): 66 % UTC; APOE RNA (% UTC) (human APOE RNA [5]; 3,200 nM): 51 % UTC; APOE RNA (% UTC) (human APOE RNA [5]; 8,000 nM): 26 % UTC; APOE RNA (% UTC) (human APOE RNA [5]; 20,000 nM): 10 % UTC; pIC50 (human APOE RNA [5]): 5.63 |
| 1778122 (eA*e[5mC]eTeTeG*eG*dT*dG[ms]dA[ms]dA*dT*d[5mC]*dT*dT*dT*dA[ms]kT*kT*eA*eA; antisense) [Compound 1778122] | 53 | 62 | 76 | 34 | – |
